Experimental data: PMC7822874, “Chemoprotective antimalarials identified through quantitative high-throughput screening of Plasmodium blood and liver stage parasites” (Scientific Reports, 2021)

The molecules below were run on Plasmodium falciparum Dd2 asexual blood stage parasites (assay: microbe, parasite or virus in culture). Conditions: Plasmodium falciparum, DD2, Erythrocyte, 72 h; read-out: AC50.
Parameters: species or system Plasmodium falciparum Dd2 in human erythrocytes; single determination (one 11-point concentration-response curve)

SMILES	AC50 [µM]
Cc1noc(C)c1-c1cc2cc(CN(C)C)oc2c(Nc2cccnc2)n1 [NCGC00417472-01]	12.2
Cc1cc2cc(-c3c(C)noc3C)nc(N(C)CCN(C)C)c2o1 [NCGC00417474-01]	12.2
Cc1noc(C)c1-c1cc2cc(CN(C)C)oc2c(NCCOc2ccccc2)n1 [NCGC00417493-01]	15.3
Cc1noc(C)c1-c1cc2cc(CN(C)C)oc2c(NCc2cccnc2)n1 [NCGC00417547-01]	1.22
CNC(=O)CCn1ncc2cc(OCc3ccccc3-c3ccccc3OC)ccc21 [NCGC00418023-01]	15.3
CNC(=O)CCn1ncc2cc(OCc3ccccc3-c3ccc(OC)cc3Cl)ccc21 [NCGC00418132-01]	16.8
O=C1COCC2(CN(Cc3ccsc3)C2)CN1Cc1cccc(OC(F)(F)F)c1 [NCGC00418928-01]	17.2
O=C(Cc1ccc2c(c1)OCO2)N1CCOCC2(CN(Cc3ccccc3)C2)C1 [NCGC00418996-01]	6.85
COc1ccccc1CN1CCOCC2(C1)CN([S+](=O)([O-])c1ccccc1)C2 [NCGC00419002-01]	12.2
COc1ccccc1-c1n[nH]c2ncc(-c3cnn(C)c3)nc12 [NCGC00419074-01]	17.2
COc1ccc(-c2n[nH]c3ncc(-c4cccnc4)nc23)cc1F [NCGC00419143-01]	3.85
COc1ccc(-c2n[nH]c3ncc(-c4ccc([S+](C)(=O)[O-])cc4)nc23)c(C)c1 [NCGC00419180-01]	15.3
O=C1c2cc(N3CCOCC3)nc(-c3ccccc3)c2CN1Cc1ccccc1 [NCGC00419273-01]	21.7
CN1CCC2(C1)CN(Cc1ccccc1)c1ccc(C(=O)Nc3ccc(F)cc3)cc12 (stereo not shown) [NCGC00419355-01]	19.3
CN1CC2(CCCN(CC3CC3)C2)c2cc(C(=O)NCCOc3ccccc3)ccc21 (stereo not shown) [NCGC00419362-01]	17.2
CC(C)(Oc1nn(CC2CC2)c2ccc(CN3CCCC3)cc12)C(N)=O [NCGC00419502-01]	13.7
CC(C)CNC(=O)C(C)(C)Oc1nn(CC2CC2)c2ccc(CN3CCCC3)cc12 [NCGC00419534-01]	19.3
CN1CCN(C(=O)C(C)(C)Oc2nn(Cc3cccc(Cl)c3)c3ccccc23)CC1 [NCGC00419545-01]	7.69
COC1CCN(C(=O)C(C)(C)Oc2nn(CC3CC3)c3ccc(CN4CCCC4)cc23)CC1 [NCGC00419576-01]	9.44
COCc1ccc2c(c1)c(OC(C)(C)C(=O)N1CCOCC1)nn2Cc1cccc(OC)c1 [NCGC00419580-01]	8.41
CC(C)(Oc1nn(Cc2cccc(Cl)c2)c2ccccc12)C(=O)NCCN1CCOCC1 [NCGC00419620-01]	5.31
COCc1ccc2c(c1)c(OC(C)(C)C(=O)N1CCN(CCO)CC1)nn2Cc1ccccc1 [NCGC00419658-01]	9.44
COc1cc2c(cc1OCc1ccccc1)N([S+](=O)([O-])c1cccnc1)CC21CCN(C)CC1 [NCGC00419860-01]	10.6
COc1cc2c(cc1OCc1cccnc1)N(C(=O)c1ccc(Oc3ccccc3)cc1)CC21CCN(CC(=O)O)CC1 [NCGC00419910-01]	5.96
CC(C)c1ccc(CC(=O)N2CCCc3ncc(C(=O)NCCc4c[nH]c5ccccc45)cc32)cc1 [NCGC00420032-01]	15
COc1cccc(CC(=O)N2CCCn3nc(C)c(-c4ccccc4OCc4ccccc4)c32)c1 [NCGC00420361-01]	9.44
Cc1nn2c(c1-c1ccccc1[S+](C)(=O)[O-])N(CCC(C)C)CCC2 [NCGC00420381-01]	9.68

SMILES	AC50 [µM]
CC(C)C(=O)NCC1CN(Cc2ccccc2)C(=O)c2c(ccnc2-c2ccc(OCC(=O)O)cc2)O1 (stereo not shown) [NCGC00420601-01]	2.11
COc1ccc(OC)c([S+](=O)([O-])NC[C@H]2C[C@@H]3CCN2C[C@@H]3c2cc(-c3ccc(F)cc3)nn2C)c1 [NCGC00420960-01]	6.68
COc1ccc(-c2cc(C[C@@H]3CC[C@H](O)[C@@H](CNCc4ccccc4OC)O3)no2)cc1 [NCGC00421057-01]	3.44
O=C(NC[C@H]1C[C@@H]2CC[N@]1C[C@@H]2CN1CCC(Cc2ccccc2)CC1)c1ccccc1 [NCGC00421103-01]	7.69
COc1ccc(C(=O)Nc2nc3c(s2)C[C@@H]2[C@](C)(CO)[C@H](O)CC[C@@]2(C)[C@@H]3CC(=O)NCc2ccco2)cc1 [NCGC00421299-01]	2.66
COC(=O)[C@@H]1Cc2c([nH]c3ccccc23)[C@H]2C[C@H](N3CCCCC3)C[C@@H](c3ccccc3F)N21 [NCGC00421326-01]	5.96
CC1=C[C@@H](CN2CCC(C)CC2)[C@H](C(C)C)C[C@H]1Cc1nnc(-c2cccnc2)o1 [NCGC00421463-01]	15.3
COCCN1C(=O)c2ccccc2C(C(=O)Nc2nc3ccccc3[nH]2)C12CCCCC2 (stereo not shown) [NCGC00423176-01]	4.73
Cc1nnc(NC(=O)C2c3ccccc3C(=O)N(CC(C)C)C23CCCCC3)s1 (stereo not shown) [NCGC00423223-01]	15
CC(C)CN1C(=O)c2ccccc2C(C(=O)Nc2nccs2)C12CCCC2 (stereo not shown) [NCGC00423343-01]	8.41
COCCN1C(=O)c2ccccc2C(C(=O)Nc2nc3ccccc3[nH]2)C12CCCC2 (stereo not shown) [NCGC00423488-01]	4.22
O=C(Nc1nccs1)C1c2ccccc2C(=O)N(C2CCCC2)C12CCCC2 (stereo not shown) [NCGC00423502-01]	4.22
CCc1nc(NC(=O)C2c3ccccc3C(=O)N(CCOC)C23CCCC3)sc1C (stereo not shown) [NCGC00423528-01]	5.96
O=C(N[C@H](c1ccccn1)[C@H]1C[C@H](O)C1)c1cc(=O)n(-c2ccccc2)[nH]1 [NCGC00423856-01]	9.44
COc1ccc(-c2ccccc2NC(=O)C2CCCN(Cc3c(O)cccc3OC)C2)cc1 (stereo not shown) [NCGC00425458-01]	2.11
O=C(Nc1ccc2c(N3CCCC3)ncnc2c1)c1ccc(Br)cc1 [NCGC00425477-01]	4.73
O=C(Nc1ccc2c(N3CCCCC3)ncnc2c1)c1ccc(F)c(F)c1 [NCGC00425519-01]	4.73
O=C(Nc1ccc2c(N3CCOCC3)ncnc2c1)c1cccc(Cl)c1 [NCGC00425551-01]	4.73
COc1cc(F)ccc1CNCc1cccnc1N1CCOCC1 [NCGC00425822-01]	10.6
CN(Cc1ccc(-n2cccn2)cc1)CC1CCN(CCc2ccc(F)cc2)CC1 [NCGC00425928-01]	10.6
COc1ccc(CN2CCC(CO)(CCCc3ccccc3)CC2)c(Cl)c1OC [NCGC00426399-01]	8.41
CN(Cc1ccccc1)Cc1ccccc1OCC(O)CN1CCCCC1 (stereo not shown) [NCGC00426411-01]	1.5
Cc1ccc(NC(=O)c2cnc(-c3ccccc3)nc2-c2ccncc2)c(Br)c1 [NCGC00426434-01]	9.44
Cc1cc(CN2CCC(CO)(Cc3ccccc3Cl)CC2)cc(C)c1O [NCGC00426527-01]	16.8
OCc1ccc(CN2CCCC(CCc3c(F)cccc3F)C2)o1 (stereo not shown) [NCGC00426759-01]	4.22
O=C(CCC1CCN(Cc2cccc3c2OCO3)CC1)NCc1cccc(C(F)(F)F)c1 [NCGC00426823-01]	3.76
COCCNC(=O)c1ccc(OC2CCN(C/C=C/c3ccc(F)cc3)CC2)c(Cl)c1 [NCGC00426935-01]	10.6

SMILES	AC50 [µM]
O=C(c1ccccc1OCC1CCCN(Cc2ccncc2F)C1)N1CCCCC1 (stereo not shown) [NCGC00427046-01]	10.6
O=C(c1ccccc1OCC1CCCN(Cc2ccncc2F)C1)N1CCCC1 (stereo not shown) [NCGC00427122-01]	10.6
Cn1cc(CN2CCCC(COc3ccccc3C(=O)N3CCCC3)C2)c2ccccc21 (stereo not shown) [NCGC00427140-01]	9.44
CCn1cc(CN2CCCC(COc3ccccc3C(=O)N3CCCC3)C2)c2ccccc21 (stereo not shown) [NCGC00427142-01]	8.41
O=C(NC1CC1)c1ccccc1OCC1CCCN(Cc2cccc3[nH]ccc23)C1 (stereo not shown) [NCGC00427156-01]	5.96
O=C(NCC1CCCN(Cc2cccc(-c3ccco3)c2)C1)c1cccs1 (stereo not shown) [NCGC00427501-01]	6.68
COc1cccc(CN2CCCC(NCc3cc(C)ccc3-n3cccn3)C2)c1 (stereo not shown) [NCGC00427605-01]	2.99
OC(COc1ccccc1CNCCc1ccccc1)CN1CCSCC1 (stereo not shown) [NCGC00427853-01]	2.11
O=C(CCC1CCCN(Cc2cccn2-c2cccnc2)C1)Nc1ccccc1F (stereo not shown) [NCGC00427855-01]	6.68
Cc1cccc(CNCc2ccccc2OCC(O)CN2CCSCC2)c1 (stereo not shown) [NCGC00428382-01]	1.5
CCOC(=O)C1(Cc2ccc(Cl)cc2)CCN(Cc2ccc(OC)cc2O)CC1 [NCGC00428386-01]	0.188
O=C(CCC[C@H]1NC[C@@H]2C[C@H]1CN(Cc1ccccc1)C2)NCCCN1CCCc2ccccc21 [NCGC00428635-01]	10.6
COc1cccc(CN2CCCC(N3CCN(c4cccc(C(F)(F)F)c4)CC3)C2)c1O (stereo not shown) [NCGC00428830-01]	0.841
COc1ccc(CNCc2ccc(C)s2)cc1OCC(O)CN1CCCCC1 (stereo not shown) [NCGC00428936-01]	9.44
O=C(NC1CCCC1)c1ccc(OC2CCN(CCCC(F)(F)F)CC2)c(Cl)c1 [NCGC00429036-01]	9.44
O=C(c1ccc(OC2CCN(Cc3c[nH]c4ccccc34)CC2)cc1)N1CCCCC1 [NCGC00429064-01]	15
CC(=O)Nc1ccc2nnc(-c3ccc(C(=O)N4CCCCCC4)cc3)n2c1 [NCGC00429830-01]	8.41
CCC(=O)Nc1ccc2nnc(-c3ccc(C(=O)Nc4ccc5c(c4)OCCO5)cc3)n2c1 [NCGC00429833-01]	7.5
CCN1CCN(C(=O)c2ccc(-c3nnc4ccc(NC(=O)C5CC5)cn34)cc2)CC1 [NCGC00429842-01]	6.68
COc1ccc(NC(=O)c2ccc(-c3nnc4ccc(NC(=O)C5CC5)cn34)cc2)cc1 [NCGC00429845-01]	2.66
CCOc1ccc(NC(=O)c2ccc(-c3nnc4ccc(NC(=O)C5CC5)cn34)cc2)cc1 [NCGC00429851-01]	2.99
CC(C)(C)NC(=O)c1ccc(-c2nnc3ccc(NC(=O)C4CC4)cn23)cc1 [NCGC00429854-01]	9.44
CCN(CC)C(=O)c1ccc(-c2nnc3ccc(NC(=O)C4CC4)cn23)cc1 [NCGC00429860-01]	2.99
COc1cccc(NC(=O)c2ccc(-c3nnc4ccc(NC(=O)C5CCC5)cn34)cc2)c1 [NCGC00429881-01]	3.76
COc1ccc(NC(=O)c2ccc(-c3nnc4ccc(NC(=O)C5CCC5)cn34)cc2)cc1 [NCGC00429884-01]	4.22
